From US7749985B2, “Acyloxyalkyl carbamate prodrugs, methods of synthesis and use” (XenoPort, Inc., priority 2006, dated 2010)

Key:
[1] = animal models (Merino et al., Biopharm. Drug. Disp. 1989); cited from earlier work
[2] = Enzymatic cleavage of prodrugs in vitro (tissue preparations of Table 1); format: in vitro ADME; details: in the presence of the tissue preparations, 37° C.
Procedure: (§1) The stabilities of prodrugs were evaluated in one or more in vitro systems using a variety of tissue preparations following methods known in the art. The chemical stability of prodrugs in aqueous buffers at a pH of 2.0, 7.4, and 8.0 were also measured. Tissues were obtained from commercial sources (e.g., Pel-Freez Biologicals, Rogers, Ark., or GenTest Corporation, Woburn, Mass.). Experimental conditions used for the in vitro studies are described in Table 1. Each preparation was incubated with test compound at 37° C. for one hour. Aliquots (50 μL) were removed at 0, 30, and 60 min and quenched with 0.1% trifluoroacetic acid in acetonitrile. Samples were then centrifuged and analyzed by LC/MS/MS. Stability of prodrugs towards specific enzymes (e.g., peptidases, etc.) was also assessed in vitro by incubation with the purified enzyme.
Pancreatin Stability: Stability studies were conducted by incubating prodrug (5 μM) with 1% (w/v) pancreatin (Sigma, P-1625, from porcine pancreas) in 0.025 M Tris buffer containing 0.5 M NaCl (pH 7.5) at 37° C. for 60 min. The reaction was stopped by addition of 2 volumes of methanol. After centrifugation at 14,000 rpm for 10 min, the supernatant was removed and analyzed by LC/MS/MS.
Caco-2 Homogenate S9 Stability: Caco-2 cells were grown for 21 days prior to harvesting. Culture medium was removed and cell monolayers were rinsed and scraped off into ice-cold 10 mM sodium phosphate/0.15 M potassium chloride, pH 7.4. Cells were lysed by sonication at 4° C. using a probe sonicator. Lysed cells were then transferred into 1.5 mL centrifuge vials and centrifuged at 9,000 g for 20 min at 4° C. The resulting supernatant (Caco-2 cell homogenate S9 fraction) was aliquoted into 0.5 mL vials and stored at −80° C. until used.
For stability studies, prodrug (5 μM) was incubated in Caco-2 homogenate S9 fraction (0.5 mg protein per mL) for 60 min at 37° C. Concentrations of intact prodrug and released tranexamic acid were determined at zero time and 60 min using LC/MS/MS.

[3] = pH-Dependent Stability of prodrugs in aqueous buffers; format: physicochemical; details: pH 2 to pH 8, 37° C.
Procedure: as §1
pH-Dependent Stability: The long-term pH-dependent stability of tranexamic acid prodrug at 37° C. was measured by LC/MS/MS at five different representative pH values from pH 2.0 to pH 8.0 was determined. The test concentration was 5 μM. The amount of remaining prodrug and the amount of tranexamic acid released from the prodrug was determined at 0 hour and after 24 hours.

Row | stability from pH 2 to pH 8 [3] | Compound | absorption following administration into the colon [1] | hydrolysis to release the corresponding 3-aminopropylphosphinic acid analog [2]
1 |  | NCC(CC(=O)O)c1ccc(Cl)cc1 (racemic) [Baclofen, (±)-4-Amino-3-(4-chlorophenyl)butanoic acid] | poorly absorbed | 
2 | good stability | CCCCP(=O)(O)CCCNC(=O)OC(C)OC(=O)C(C)C (centres unmarked) [Compound 31, 3-{[1-Isobutanoyloxyethoxy]carbonylamino}propyl(n-butyl)phosphinic Acid] |  | hydrolyzed to release the corresponding 3-aminopropylphosphinic acid analogs
3 | good stability | CCCCP(=O)(O)CCCNC(=O)OCOC(=O)C(C)C [Compound 35, 3-{[Isobutanoyloxymethoxy]carbonylamino}propyl(n-butyl)phosphinic Acid] |  | hydrolyzed to release the corresponding 3-aminopropylphosphinic acid analogs
4 | good stability | CCCCP(=O)(O)CCCNC(=O)OC(C)OC(=O)c1ccccc1 (centres unmarked) [Compound 211, 3-{[1-Benzoyloxyethoxy]carbonylamino}propyl(n-butyl)phosphinic Acid] |  | hydrolyzed to release the corresponding 3-aminopropylphosphinic acid analogs
5 | good stability | CCCCP(=O)(O)CCCNC(=O)OCOC(=O)c1ccccc1 [Compound 212, 3-{[1-Benzoyloxymethoxy]carbonylamino}propyl(n-butyl)phosphinic Acid] |  | hydrolyzed to release the corresponding 3-aminopropylphosphinic acid analogs

Row | Compound | stability from pH 2 to pH 8 [3] | absorption following administration into the colon [1] | hydrolysis to release the corresponding 3-aminopropylphosphinic acid analog [2]
6 | CCCCP(=O)(O)CCCNC(=O)OC(OC(=O)C(C)C)C(C)C (centres unmarked) [39/40, 3-{[1-isobutanoyloxyisobutoxy]carbonylamino}propyl(n-butyl)phosphinic acid] | good stability |  | hydrolyzed to release the corresponding 3-aminopropylphosphinic acid analogs
